Test results as given in patent US7342090B1, “Fab-epitope complex from the HIV-1 cross-neutralizing monoclonal antibody 2F5” (University of Toronto, priority 1999, dated 2008).
Square brackets hold non-standard residues; d marks the D form. Ends that are not written are not given here. Dap = NC[C@H](N)C(=O)O

System: monoclonal antibody 2F5
Experiment: Immuno-complex formation of constrained peptides with monoclonal antibody 2F5
Format: binding, human
Settings: subsequently co-crystallized with the Fab′ fragment

monoclonal antibody 2F5, sequence (as listed by the source, other chains not shown): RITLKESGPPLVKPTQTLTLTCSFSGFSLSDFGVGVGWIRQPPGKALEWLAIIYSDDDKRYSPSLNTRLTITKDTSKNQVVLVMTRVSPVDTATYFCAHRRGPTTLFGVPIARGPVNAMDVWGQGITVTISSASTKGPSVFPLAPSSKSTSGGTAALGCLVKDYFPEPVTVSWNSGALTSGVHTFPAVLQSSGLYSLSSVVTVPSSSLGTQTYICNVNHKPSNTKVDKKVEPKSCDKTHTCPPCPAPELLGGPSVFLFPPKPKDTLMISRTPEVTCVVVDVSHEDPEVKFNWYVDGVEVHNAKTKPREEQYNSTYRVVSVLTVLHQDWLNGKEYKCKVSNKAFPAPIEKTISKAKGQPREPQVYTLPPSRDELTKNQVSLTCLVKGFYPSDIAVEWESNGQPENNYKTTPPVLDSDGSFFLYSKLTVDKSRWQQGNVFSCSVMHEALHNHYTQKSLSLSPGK

| Substance | formation of an immuno-complex with monoclonal antibody 2F5 |
| --- | --- |
| ECDKWCS [CLP-634] | capable of forming an immuno-complex |
| E[Dap]DKWES [CLP-1309] | capable of forming an immuno-complex |
